# Source: patent US6172185A, “Antimicrobial cationic peptide derivatives of bactenecin” (priority 1998, dated 2001)
# What was measured:
# E.coli UB1005 = assay: MIC, modified two-fold microtitre broth dilution; format: cell-based, Escherichia coli
# Source text: (§1) Bacterial strains for antimicrobial activity testing included Escherichia coli UB1005 and its antibiotic supersusceptible derivative DC2 (Richmond et al., Antimicrob. Agents Chemother. 10:215, 1976), Pseudomonas aeruginosa K799 and its antibiotic-supersusceptible derivative Z61 (Angus et al., Antimicrob. Agents Chemother. 21:299, 1982), Salmonella typhimurium 14028s and its defensin-supersusceptible derivative MS7953s (Fields et al., Science, 243:1059, 1989), Staphylococcus aureus ATCC25923 and a clinical isolate Staphylococcus aureus SAP1007. Other Gram-positive bacterial strains include Staphylococcus epidermidis (clinical isolate) and Enterococcus faecalis ATCC29212, Listeria monocytogenes, Corynebacterium xerosis, Streptococcus pneumoniae ATTC49619, Streptococcus pyogenes ATTC19615, Streptococcus mitis.
# (§2) The minimal inhibitory concentration (MIC) of peptides was determined by a modified two-fold microtitre broth dilution method modified from that of Steinberg et al (Steinberg, Antimicrob. Agents Chemother. 41:1738, 1997). Using the classical method (Amsterdam, Antibiotics in Laboratory Medicine (Lorian, V., ed) pp. 72-78, 1991), higher concentrations of peptides tend to precipitate in the LB broth, thus the concentrations of peptides in the sequential wells are not accurate. Also the peptides stick to the most readily available (tissue-culture treated polystyrene) 96-well microtitre plates. Therefore the 2× series of dilutions was performed in Eppendoff tubes (polypropylene) before mixing with LB broth. Serial of two fold dilutions of peptides ranging from 640 μg/ml to 1.25 μg/ml were made in 0.2% BSA, 0.01% acetic acid buffer in the Eppendoff tubes. Ten μl of each concentration was added to each corresponding well of a 96-well microtiter plate (polypropylene cluster; Costar Corporation, Cambridge, Mass.). Bacteria were grown overnight and diluted 10-5 into fresh LB broth or Todd Hewitt broth for Streptococcus. LB medium contained 10 g/1l tryptone and 5 g/yeast extract, with no salt. Todd Hewitt contained 500 g/l beef heart infusion, 20 g/l bacto neopeptone, 2 g/l bacto dextrose, 2 g/l sodium chloride, 0.4 g/l disodium phosphate, 2.5 g/l sodium carbonate. One hundred […] containing about 10^4-10^5 CFU/ml of tested bacteria was added to each well. The plate was incubated at 37° C. overnight. The MIC was taken as the concentration at which greater than 90% of growth inhibition was observed.
# P.aeruginosa = assay: MIC, modified two-fold microtitre broth dilution; format: cell-based, Pseudomonas aeruginosa
# Source text: as §1, §2
# S.typhimurium = assay: MIC, modified two-fold microtitre broth dilution; format: cell-based, Salmonella typhimurium
# Source text: as §1, §2
# Staph. aureus = assay: MIC, modified two-fold microtitre broth dilution; format: cell-based, Staphylococcus aureus
# Source text: as §1, §2
# Staph. epidermidis = assay: MIC, modified two-fold microtitre broth dilution; format: cell-based, Staphylococcus epidermidis
# Source text: as §1, §2
# E.facaelis = assay: MIC, modified two-fold microtitre broth dilution; format: cell-based, Enterococcus faecalis
# Source text: as §1, §2
# Listeria monocytogenes = assay: MIC, modified two-fold microtitre broth dilution; format: cell-based
# Source text: as §1, §2
# C. xerosis = assay: MIC, modified two-fold microtitre broth dilution; format: cell-based, Corynebacterium xerosis
# Source text: as §1, §2
# Strep. pyogenes = assay: MIC, modified two-fold microtitre broth dilution; format: cell-based, Streptococcus pyogenes; conditions: for MIC Strep. pyogeness: Table IID, linear (Group 2): reduced forms of the peptides, Bac (Oxidized) as comparator
# Source text: as §1, §2
# Strep. mitis = assay: MIC, modified two-fold microtitre broth dilution; format: cell-based, Streptococcus mitis; conditions: for MIC Strep. mitis: Table IID, linear (Group 2): reduced forms of the peptides, Bac (Oxidized) as comparator
# Source text: as §1, §2
# Strep. pneumoniae = assay: MIC, modified two-fold microtitre broth dilution; format: cell-based, Streptococcus pneumoniae; conditions: for MIC Strep. pneumonia: Table IID, linear (Group 2): reduced forms of the peptides, Bac (Oxidized) as comparator; for MIC S. pneumoniae: Table IVB, non-linear hydrophobicity modification derivatives; for MIC S. pneumonia: Table IIIB, non-linear positive-charge modification derivatives
# Source text: as §1, §2
# [1] = Table IIC, linear (Group 2): reduced forms of the peptides, Bac (Oxidized) as comparator
# [2] = Table IVA, non-linear hydrophobicity modification derivatives
# [3] = Table IID, linear (Group 2): reduced forms of the peptides, Bac (Oxidized) as comparator
# [4] = Table IVB, non-linear hydrophobicity modification derivatives
# [5] = table IIA, non-linear positive-charge modification derivatives
# [6] = Table IIIB, non-linear positive-charge modification derivatives
Sequence,MIC E.coli UB1005 (E.coli UB1005; [1]),MIC E.coli UB1005 (E.coli UB1005; [2]),MIC P. aeruginosa (P.aeruginosa; [1]),MIC P. aeruginosa (P.aeruginosa; [2]),MIC S. typhimurium (S.typhimurium; [1]),MIC S. typhimurium (S.typhimurium; [2]),MIC Staph. aureus (Staph. aureus; [3]),MIC Staph. aureus (Staph. aureus; [4]),MIC Staph. epidermidis (Staph. epidermidis; [3]),MIC Staph. epidermidis (Staph. epidermidis; [4]),MIC E.facaelis (E.facaelis; [3]),MIC E.facaelis (E.facaelis; [4]),MIC Listeria (Listeria monocytogenes; [3]),MIC Listeria (Listeria monocytogenes; [4]),MIC C. xerosis (C. xerosis; [3]),MIC Strep. pyogeness (Strep. pyogenes),MIC Strep. mitis (Strep. mitis),MIC Strep. pneumonia (Strep. pneumoniae),"Minimal Agglutinating Concentration, Oxidized Form (Human Red Blood Cells)","Minimal Agglutinating Concentration, Reduced Form (Human Red Blood Cells)",further results
RLCRIVPVIRVCR [Bac P],16 µg/mL,32 µg/mL,32 µg/mL,> 64 µg/mL,64 µg/mL,> 64 µg/mL,> 64 µg/mL,64 µg/mL,16 µg/mL,64 µg/mL,32 µg/mL,> 64 µg/mL,4 µg/mL,2 µg/mL,2 µg/mL,32 µg/mL,2 µg/mL,> 64 µg/mL,64 µg/mL,64 µg/mL,MIC C. xerosis (C. xerosis; [4]): 8 µg/mL; MIC Strep. pyogenes (Strep. pyogenes; [4]): 64 µg/mL; MIC S. mitis (Strep. mitis; [4]): 4 µg/mL; MIC S. pneumoniae (Strep. pneumoniae): > 64 µg/mL
RRLCRIVVIRVCRR [Bac 2R],4 µg/mL,–,16 µg/mL,–,32 µg/mL,–,> 64 µg/mL,–,4 µg/mL,–,4 µg/mL,–,0.5 µg/mL,–,0.25 µg/mL,16 µg/mL,0.5 µg/mL,> 64 µg/mL,64 µg/mL,32 µg/mL,"MIC E.coli UB1005 (E.coli UB1005; [5]): 2 µg/mL; MIC against P. aeruginosa, times better than native bactenecin (P.aeruginosa): 2 X; MIC P. aeruginosa (P.aeruginosa; [5]): 4 µg/mL; MIC against S. typhimurium, times better than native bactenecin (S.typhimurium): 2 X; MIC S. typhimurium (S.typhimurium; [5]): 4 µg/mL; MIC Staph. aureus (Staph. aureus; [6]): 64 µg/mL; MIC Staph. epidermidis (Staph. epidermidis; [6]): 8 µg/mL; MIC E.facaelis (E.facaelis; [6]): 32 µg/mL; MIC Listeria (Listeria monocytogenes; [6]): < 0.125 µg/mL; MIC C. xerosis (C. xerosis; [6]): 1 µg/mL; MIC Strep. pyogenes (Strep. pyogenes; [6]): 8 µg/mL; MIC S. mitis (Strep. mitis; [6]): 0.5 µg/mL; MIC S. pneumonia (Strep. pneumoniae): > 64 µg/mL"
"RRLCRIVWVIRVCRR [Bac 2R, W]",> 64 µg/mL,2 µg/mL,> 64 µg/mL,2 µg/mL,> 64 µg/mL,2 µg/mL,> 64 µg/mL,2 µg/mL,32 µg/mL,1 µg/mL,> 64 µg/mL,2 µg/mL,4 µg/mL,0.25 µg/mL,2 µg/mL,32 µg/mL,2 µg/mL,64 µg/mL,32 µg/mL,8 µg/mL,MIC C. xerosis (C. xerosis; [4]): 0.25 µg/mL; MIC Strep. pyogenes (Strep. pyogenes; [4]): 1 µg/mL; MIC S. mitis (Strep. mitis; [4]): 0.25 µg/mL; MIC S. pneumoniae (Strep. pneumoniae): 8 µg/mL; concentration causing agglutination of human red blood cells (Human Red Blood Cells): 16000 to 32000 ng/mL
RLCRIVWVIRVCR [Bac W],> 64 µg/mL,8 µg/mL,> 64 µg/mL,4 µg/mL,64 µg/mL,4 µg/mL,> 64 µg/mL,4 µg/mL,32 µg/mL,2 µg/mL,32 µg/mL,8 µg/mL,2 µg/mL,0.5 µg/mL,1 µg/mL,16 µg/mL,1 µg/mL,32 µg/mL,32 µg/mL,4 µg/mL,MIC C. xerosis (C. xerosis; [4]): 1 µg/mL; MIC Strep. pyogenes (Strep. pyogenes; [4]): 2 µg/mL; MIC S. mitis (Strep. mitis; [4]): 1 µg/mL; MIC S. pneumoniae (Strep. pneumoniae): 16 µg/mL
"KKCPIVVIRVCK [Bac 3K, P]",> 64 µg/mL,–,> 64 µg/mL,–,> 64 µg/mL,–,> 64 µg/mL,–,> 64 µg/mL,–,> 64 µg/mL,–,4 µg/mL,–,4 µg/mL,64 µg/mL,0.25 µg/mL,> 64 µg/mL,> 64 µg/mL,64 µg/mL,MIC E.coli UB1005 (E.coli UB1005; [5]): 16 µg/mL; MIC P. aeruginosa (P.aeruginosa; [5]): > 64 µg/mL; MIC S. typhimurium (S.typhimurium; [5]): 32 µg/mL; MIC Staph. aureus (Staph. aureus; [6]): > 64 µg/mL; MIC Staph. epidermidis (Staph. epidermidis; [6]): > 64 µg/mL; MIC E.facaelis (E.facaelis; [6]): > 64 µg/mL; MIC Listeria (Listeria monocytogenes; [6]): 8 µg/mL; MIC C. xerosis (C. xerosis; [6]): 16 µg/mL; MIC Strep. pyogenes (Strep. pyogenes; [6]): > 64 µg/mL; MIC S. mitis (Strep. mitis; [6]): 2 µg/mL; MIC S. pneumonia (Strep. pneumoniae): > 64 µg/mL
"RRRLCPIVIRVCRR [Bac 3R, P, (V)]",4 µg/mL,–,32 µg/mL,–,32 µg/mL,–,> 64 µg/mL,–,8 µg/mL,–,32 µg/mL,–,1 µg/mL,–,0.5 µg/mL,8 µg/mL,1 µg/mL,> 64 µg/mL,> 64 µg/mL,32 µg/mL,MIC E.coli UB1005 (E.coli UB1005; [5]): 2 µg/mL; MIC P. aeruginosa (P.aeruginosa; [5]): 8 µg/mL; MIC S. typhimurium (S.typhimurium; [5]): 8 µg/mL; MIC Staph. aureus (Staph. aureus; [6]): > 64 µg/mL; MIC Staph. epidermidis (Staph. epidermidis; [6]): 16 µg/mL; MIC E.facaelis (E.facaelis; [6]): > 64 µg/mL; MIC Listeria (Listeria monocytogenes; [6]): 1 µg/mL; MIC C. xerosis (C. xerosis; [6]): 4 µg/mL; MIC Strep. pyogenes (Strep. pyogenes; [6]): 4 µg/mL; MIC S. mitis (Strep. mitis; [6]): 1 µg/mL; MIC S. pneumonia (Strep. pneumoniae): > 64 µg/mL
